Results: patent US20180099931A1 (AbbVie S.à.r.l., priority 2016, published 2018)
pEC50: −log10 of the molar value. Like-named read-outs stand apart in the source and are kept apart here.

Target: T1, F508delCFTR (Homo sapiens, UniProt P13569, DEL508-508)
T1 construct: expressed in transfected cells; host or cells: CFBE41o- human lung-derived epithelial cells (CFBE4lo-F508delCFTR-HRP), doxycycline-inducible
Assay: Cell Surface Expression-Horse Radish Peroxidase (CSE-HRP) Assay;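 for Maximum % activity (with co-corrector): co-corrector and positive control are both the same reference corrector at 2 µM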;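 for Maximum % activity (without co-corrector): percent of the 2 µM on-plate positive control corrector response above DMSO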
Format: cell-based
Details: for Emax / Maximum % activity (with co-corrector): maximum at any tested concentration, normalized to on-plate positive control; for Emax: read-out: Maximum % activity (without co-corrector)
Method: Cell Surface Expression-Horse Radish Peroxidase (CSE-HRP) Assay;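 for Maximum % activity (with co-corrector): co-corrector and positive control are both the same reference corrector at 2 µM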;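 for Maximum % activity (without co-corrector): percent of the 2 µM on-plate positive control corrector response above DMSO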
The development was achieved by expressing the F508delCFTR mutation along with a horseradish peroxidase (HRP) in the fourth exofacial loop, and then measuring the HRP activity using luminescence readout from these cells, CFBE4lo-F508delCFTR-HRP, that were incubated overnight with the test corrector compounds, either without or with the co-corrector. […] The test compounds were then added either without or with a co-corrector at the required concentrations and further incubated for 18-24 hours at 33° C. The highest concentration tested was 20 μM with an 8-point concentration response curve using a 3-fold dilution in both the test compound without or with the co-corrector. Three replicate plates were run to determine one EC50. All plates contained negative controls (dimethyl sulfoxide, DMSO) and positive control (2 μM of 3-[(2R,4R)-4-({[1-(2,2-difluoro-1,3-benzodioxol-5-yl)cyclopropyl]carbonyl}amino)-7-methoxy-3,4-dihydro-2H-chromen-2-yl]benzoic acid) as well as on-plate concentration response of the positive control. […] The raw counts from the experiment were analyzed using Accelrys® Assay Explorer v3.3.
1−[3*SDPositive Control+3*SDNegative Control/Absolute(MeanPositive Control−MeanNegative Control)]
wherein “SD” is standard deviation.
The % activity measured at each of the 8 test concentrations of the test compound added either without or with a co-corrector (2 μM of 3-[(2R,4R)-4-({[1-(2,2-difluoro-1,3-benzodioxol-5-yl)cyclopropyl]carbonyl}amino)-7-methoxy-3,4-dihydro-2H-chromen-2-yl]benzoic acid) was normalized to the on-plate positive control using the following formulae:
% activity(Test compound without co-corrector)=[(test compound without co-corrector response−DMSO response)/(positive control response−DMSO response)]*100
% activity(Test compound with co-corrector)=[(test compound with co-corrector response−DMSO response)/(positive control response−DMSO response)]*100
The maximum % activity achieved for the test compound either without or with a co-corrector at any tested concentration is presented in Table 4 along with the respective EC50's calculated using the following general sigmoidal curve with variable Hill slope equation (described as Model 42 in the Accelrys® Assay Explorer v3.3 software):
General sigmoidal curve with concentration, response, top, bottom, EC50 and Hill slope. This model describes a sigmoidal curve with an adjustable baseline, a. The equation can be used to fit curves where response is either increasing or decreasing with respect to the independent variable, “x”.
“x” is a concentration of drug under test. “y” is the response. “a” is the maximum response, and “d” is the minimum response “c” is the inflection point (EC50) for the curve. That is, “y” is halfway between the lower and upper asymptotes when x=c. “b” is the slope-factor or Hill coefficient. The sign of b is positive when the response increases with increasing dose and is negative when the response decreases with increasing dose (inhibition).

[1] = test compound without co-corrector
[2] = test compound without co-corrector, read-out: EC50 (without co-corrector)
[3] = with co-corrector (2 μM of 3-[(2R,4R)-4-({[1-(2,2-difluoro-1,3-benzodioxol-5-yl)cyclopropyl]carbonyl}amino)-7-methoxy-3,4-dihydro-2H-chromen-2-yl]benzoic acid)
[4] = with co-corrector (2 μM of 3-[(2R,4R)-4-({[1-(2,2-difluoro-1,3-benzodioxol-5-yl)cyclopropyl]carbonyl}amino)-7-methoxy-3,4-dihydro-2H-chromen-2-yl]benzoic acid), read-out: EC50 (with co-corrector)
[5] = CSE-HRP, test compound without co-corrector, read-out: EC50 (without co-corrector)
[6] = CSE-HRP, with co-corrector (2 μM of 3-[(2R,4R)-4-({[1-(2,2-difluoro-1,3-benzodioxol-5-yl)cyclopropyl]carbonyl}amino)-7-methoxy-3,4-dihydro-2H-chromen-2-yl]benzoic acid), read-out: EC50 (with co-corrector)
[7] = CSE-HRP, with co-corrector (2 μM)

T1 sequence (P13569 with tags, fused parts or gaps DEL508-508): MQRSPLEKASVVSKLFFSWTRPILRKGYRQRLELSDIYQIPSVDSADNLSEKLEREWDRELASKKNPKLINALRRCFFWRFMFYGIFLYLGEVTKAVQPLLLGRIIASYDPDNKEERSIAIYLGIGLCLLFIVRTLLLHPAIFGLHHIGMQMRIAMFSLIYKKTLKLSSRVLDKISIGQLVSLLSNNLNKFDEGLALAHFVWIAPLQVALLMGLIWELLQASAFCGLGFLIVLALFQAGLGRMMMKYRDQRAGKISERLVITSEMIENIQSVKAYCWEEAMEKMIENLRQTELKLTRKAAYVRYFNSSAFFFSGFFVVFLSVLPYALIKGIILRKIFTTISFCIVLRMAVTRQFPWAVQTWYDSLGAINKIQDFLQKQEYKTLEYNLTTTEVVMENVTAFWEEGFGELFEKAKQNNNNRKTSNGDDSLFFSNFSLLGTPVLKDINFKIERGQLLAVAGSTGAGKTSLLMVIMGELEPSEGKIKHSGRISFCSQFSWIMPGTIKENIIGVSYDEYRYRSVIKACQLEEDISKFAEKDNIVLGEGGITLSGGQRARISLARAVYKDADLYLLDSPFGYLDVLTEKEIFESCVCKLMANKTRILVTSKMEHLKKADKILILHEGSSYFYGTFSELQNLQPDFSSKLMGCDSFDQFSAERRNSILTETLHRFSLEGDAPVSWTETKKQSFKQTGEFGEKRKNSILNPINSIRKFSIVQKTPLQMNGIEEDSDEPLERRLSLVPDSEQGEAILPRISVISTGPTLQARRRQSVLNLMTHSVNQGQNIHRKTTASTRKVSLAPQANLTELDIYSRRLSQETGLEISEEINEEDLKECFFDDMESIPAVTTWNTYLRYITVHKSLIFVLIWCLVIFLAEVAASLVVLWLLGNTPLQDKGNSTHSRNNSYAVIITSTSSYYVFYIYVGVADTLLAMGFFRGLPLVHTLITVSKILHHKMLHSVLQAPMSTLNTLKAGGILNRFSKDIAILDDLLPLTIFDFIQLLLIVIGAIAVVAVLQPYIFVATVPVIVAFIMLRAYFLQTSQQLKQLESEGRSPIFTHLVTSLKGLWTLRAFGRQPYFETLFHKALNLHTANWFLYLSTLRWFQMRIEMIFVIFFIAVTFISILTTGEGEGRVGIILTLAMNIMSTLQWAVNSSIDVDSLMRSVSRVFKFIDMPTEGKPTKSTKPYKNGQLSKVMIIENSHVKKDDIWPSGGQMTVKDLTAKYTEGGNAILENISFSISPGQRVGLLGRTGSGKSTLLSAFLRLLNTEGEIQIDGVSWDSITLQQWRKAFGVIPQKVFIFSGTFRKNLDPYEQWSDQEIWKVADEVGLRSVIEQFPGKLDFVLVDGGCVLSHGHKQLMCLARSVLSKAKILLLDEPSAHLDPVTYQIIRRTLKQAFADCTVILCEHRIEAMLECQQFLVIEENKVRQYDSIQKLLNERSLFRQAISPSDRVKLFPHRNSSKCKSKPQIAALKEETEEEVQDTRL

Structure (SMILES)	Emax [1]	pEC50 [2]	Maximum % activity (with co-corrector) [3]	pEC50 [4]	Maximum % activity (with co-corrector) (with co-corrector (2 μM))	pEC50 [5]	pEC50 [6]	Maximum % activity (with co-corrector) [7]	Emax (CSE-HRP, without co-corrector)	Emax (without co-corrector)
COc1ccc(C2=CCOCC2)cc1CN[C@H]1[C@H](C(C)(C)C)[C@@H](C(=O)O)N(C(=O)C2CCCCC2)[C@H]1c1ccccc1 [Example I-129]	–	5.00 to 6.00	–	5.00 to 6.00	+++ (≥350)	–	–	–	–	100 to 200%
COc1ccc(C(F)(F)F)cc1CN[C@H]1[C@H](C(C)(C)C)[C@@H](C(=O)O)N(C(=O)[C@H]2CCC[C@H](OC)C2)[C@H]1c1ccccc1 [Example I-60]	–	5.00 to 6.00	–	5.00 to 6.00	+++ (≥350)	–	–	–	–	> 200%
COc1ccc(C2(C)CCC2)cc1CN[C@H]1[C@H](C(C)(C)C)[C@@H](C(=O)O)N(C(=O)C2CCCCC2)[C@H]1c1cccnc1OC [Example I-238]	–	5.00 to 6.00	–	> 6.00	+++ (≥350)	–	–	–	–	> 200%
COc1cccc([C@@H]2[C@H](NCc3cc(C(F)(F)F)ccc3OC)[C@@H](C(C)(C)C)[C@H](C(=O)O)N2C(=O)C2CCCCC2)n1 (racemic) [Example I-19]	–	5.00 to 6.00	–	5.00 to 6.00	+++ (≥350)	–	–	–	–	100 to 200%
COc1ccc(CC2CCCCC2)cc1CN[C@H]1[C@H](C(C)(C)OC)[C@@H](C(=O)O)N(C(=O)C2CCCCC2)[C@H]1c1ccccc1 [Example I-118]	–	> 6.00	–	> 6.00	+++ (≥350)	–	–	–	–	> 200%

The remaining lines, values ahead:

Emax [1]	pEC50 [2]	Maximum % activity (with co-corrector) [3]	pEC50 [4]	Maximum % activity (with co-corrector) (with co-corrector (2 μM))	pEC50 [5]	pEC50 [6]	Maximum % activity (with co-corrector) [7]	Emax (CSE-HRP, without co-corrector)	Emax (without co-corrector)	Structure (SMILES)
100 to 200%	5.00 to 6.00	+++ (≥350)	5.00 to 6.00	–	–	–	–	–	–	COc1nc(C(C)(C)C)ccc1CN[C@H]1[C@H](C(C)(C)C)[C@@H](C(=O)O)N(C(=O)C2CCCCC2)[C@H]1c1ccccc1OC(F)F [II-528]
< 100%	< 5.00	–	5.00 to 6.00	++ (≥150 and <350)	–	–	–	–	–	CC(C)(C)[C@H]1[C@H](NCc2ccc(Cl)c(Cl)c2)[C@H](c2ccccc2)N(C(=O)C2CCCCC2)[C@@H]1C(=O)O [III-130]
–	–	–	–	–	5.00 to 6.00	> 6.00	+++ (≥350)	100 to 200%	–	COc1cc(C(C)(C)C)ccc1CN[C@H]1[C@H](C(C)(C)C)[C@@H](C(=O)O)N(C(=O)C2CCCCC2)[C@H]1c1ccccc1OC [II-141]
–	–	–	–	–	> 6.00	5.00 to 6.00	+++ (≥350)	< 100%	–	COc1cc(CN[C@H]2[C@H](C(C)(C)C)[C@@H](C(=O)O)N(C(=O)C3CCCCC3)[C@H]2c2ccccc2)c(Br)cc1F [II-114]
< 100%	5.00 to 6.00	++ (≥150 and <350)	5.00 to 6.00	–	–	–	–	–	–	COc1ncc(C(F)(F)F)cc1CN[C@H]1[C@H](C(C)(C)C)[C@@H](C(=O)O)N(C(=O)C2Cc3cccc(C)c3O2)[C@H]1c1ccccc1 (some centres unmarked) [II-446]
–	–	–	–	–	5.00 to 6.00	5.00 to 6.00	++ (≥150 and <350)	< 100%	–	COc1ccc(C(F)(F)F)cc1CN[C@@H]1[C@@H](C(C)(C)C)[C@H](C(=O)O)N(C(=O)C2CCC3(CC2)CC3)[C@@H]1c1ccccc1 (racemic) [II-70]
> 200%	5.00 to 6.00	+++ (≥350)	> 6.00	–	–	–	–	–	–	COc1nc2ccccc2cc1CN[C@H]1[C@H](C(C)(C)C)[C@@H](C(=O)O)N(C(=O)C2CCOCC2)[C@H]1c1ccccc1C(C)C [II-598]
–	–	–	–	–	5.00 to 6.00	5.00 to 6.00	+++ (≥350)	> 200%	–	COc1ccc(C(F)(F)F)cc1CN[C@H]1[C@H](C(C)(C)C)[C@@H](C(=O)O)N(C(=O)[C@H](OC)c2ccccc2)[C@H]1c1ccccc1N(C)C [II-62]
< 100%	5.00 to 6.00	–	5.00 to 6.00	++ (≥150 and <350)	–	–	–	–	–	COc1cc(Cl)cnc1N[C@@H]1[C@@H](C(C)(C)OC)[C@H](C(=O)O)N(C(=O)C2CCCCC2)[C@@H]1c1ccccc1 (racemic) [III-111]
